The values that follow come from paper PMC8589421, “Impact of Type II LRRK2 inhibitors on signaling and mitophagy” (Biochemical Journal, 2021).

Each structure is given as a SMILES string.

The subject of the experiment is LRRK2 Ser935 phosphorylation, LRRK2[R1441C]. In words: LRRK2 Ser935 phospho-immunoblot in LRRK2[R1441C] knock-in MEFs. The format is cell-based, mouse. As for the experimental part: Wild-type and homozygous LRRK2 [R1441C] (Jax, stock number: 009346), LRRK2[G2019S] Taconic, (model 13940) and LRRK2 [A2016T] (Jax, stock number: 021828)[7] knock-in MEF cells were isolated from littermate-matched mouse embryos on a C57BL/6J background at day E12.5 as described previously. MEFs were grown in Dulbecco's modified Eagle medium (DMEM GIBCO, #11960-085) containing 10% (by vol) fetal bovine serum (FBS), 2 mM L-glutamine, 100 U/ml penicillin, and […] streptomycin supplemented with non-essential amino acids and 1 mM sodium pyruvate. Human embryonic kidney 293 (HEK293) (#ATCC CRL-1573) and HeLa (#ATCC CCL-2) cells were purchased from American Tissue Culture Collection (ATCC) and cultured in DMEM containing 10% (by vol) FBS, 2 mM L-glutamine, 100 U/ml penicillin, and […] streptomycin. All cells were grown at 37°C, 5% (by vol) CO2 in a humidified atmosphere and regularly tested for mycoplasma contamination.
Inhibitors were dissolved in dimethyl sulfoxide (DMSO) (Sigma, #D2650). The inhibitors were diluted 1000× into cell medium. The equivalent volume of DMSO was added to the minus inhibitor controls. Experiments were performed in six-well plates, 10 cm dishes or 15 cm dishes depending on the amount of cell extract required.
Cells were lysed in an ice-cold lysis buffer containing 50 mM Tris–HCl, pH 7.4, 1% (by vol) Triton X-100, 10% (by vol) glycerol, 150 mM NaCl, 1 mM sodium orthovanadate, 50 mM NaF, 10 mM 2-glycerophosphate, 5 mM sodium pyrophosphate, 1 µg/ml microcystin-LR, and cOmplete EDTA-free protease inhibitor cocktail (Roche, #11836170001). Lysates were incubated on ice for 30 min and clarified by centrifugation at 20 800×g at 4°C for 20 min. Supernatants were quantified by Bradford assay (Bio-Rad Protein Assay Dye Reagent Concentrate #5000006) and samples prepared in 1× lithium dodecyl sulfate sample buffer final concentration (NuPage LDS Sample buffer 4× Invitrogen, #NP0008). When not deployed immediately, lysates were snap-frozen in liquid nitrogen and stored at −80°C until use.
Cell extracts were mixed with a quarter of a volume of NuPage LDS Sample buffer 4× Invitrogen and heated at 95°C for 5 min. […] At the end of electrophoresis, proteins were electrophoretically transferred onto the nitrocellulose membrane (GE Healthcare, Amersham Protran Supported 0.45 µm NC) at 100 V for 90 min on ice in the transfer buffer (48 mM Tris–HCl and 39 mM glycine supplemented with 20% methanol). Transferred membrane was blocked with 5% (w/v) skim milk powder dissolved in TBS-T [20 mM Tris–HCl, pH 7.5, 150 mM NaCl and 0.1% (v/v) Tween 20] at room temperature for 1 h. […]
(A western blot detects proteins with antibodies after separation by electrophoresis.)

Take `Cc1ccc(C(=O)Nc2ccc(CN3CCN(C)CC3)c(C(F)(F)F)c2)cc1C#Cc1cnc2[nH]ncc2c1` [GZD-824]: for the setting “LRRK2[R1441C] cells, 1 μM”, the “time at which Ser935 phosphorylation plateaued” value stood at 160 min and the “time by which Ser935 phosphorylation increased” value is recorded as at most 40 min. Besides, the “effect on Ser935 phosphorylation in LRRK2[R1441C] knock-in cells” value (dose and time dependent) is “rescue Ser935 phosphorylation”.
